Reference: US10758607B2, “Respiratory syncytial virus having cleavage-resistant G protein and related materials and methods” (The Research Institute at Nationwide Children's Hospital, priority 2015, dated 2020)
Entries after “also recorded” stand apart in the source; their conditions may differ. Where a SMILES comes first, the peptide text is derived from it.

Experiments:
[1] = system: RSV G protein cleavage in Vero cells; experiment: Cleavage of mutant G proteins transiently expressed in Vero cells (immunoblot); type: cell-based; conditions: for cleavage of G protein deletion mutants: 24 h post-transfection, vs wt G protein; for resistance to cleavage of alanine substitution G protein mutants: 24 hours post-transfection
Method: The G gene in the region of amino acid 210 was modified by deleting stretches of amino acids in this region (200-211, 204-213, 206-215, 208-217, or 209-213). […] Most of the mutants almost completely ablate cleavage. They all share amino acids 208-211. However, A206-210 and A206-215, both of which bring together amino acids that can also serve as a cathepsin L cleavage site. For FIG. 6B, the mutated G protein genes were transiently expressed in Vero cells. 24 h post-transfection cells were harvested, lysed and proteins were separated by SDS-PAGE, blotted and probed with mAb to the G protein.
To identify which amino acids are important for cleavage, individual amino acids in and around this region were changed to alanine. These mutant G proteins were transiently expressed in Vero cells and assessed by immunoblot (FIG. 6C). For FIG. 6C, the mutated G protein genes were transiently expressed in Vero cells. 24 hours post-transfection cells were harvested, lysed and proteins were separated by SDS-PAGE, blotted and probed with mAb to the G protein.
The strain A2 G protein plasmid was mutagenized using synthetic double strand gBlock DNA (Integrated DNA Technologies). Van91I (Thermo Fisher) and Xho I (New England Biolabs) were used to digest plasmid and gBlock. Doubly-digested plasmid was isolated by agarose gel electrophoresis. Digested gBlock and eluted plasmid DNAs were ligated with T4 DNA ligase (Promega, Madison, Wis.), and transformed into One Shot MachI-T1 chemically competent bacteria (Life Technologies). Plasmids were extracted using HiSpeed or Plasmid Plus Maxi kits (Qiagen).
Wild type G or frG proteins were expressed in HeLa or Vero cells following plasmid transfection with FuGene HD (Promega) or Lipofectamine LTX (Life Technologies), respectively, in medium containing 2% FBS. In frG experiments, medium was collected and concentrated using Ultracel-10 K centrifugal filters (EMD Millipore, Billerica, Mass.). For other transfection experiments, Vero cells were transfected using Lipofectamine 3000 (Life Technologies) in medium containing 10% FBS. For all transfection experiments, cells were lysed and protein quantified by BCA assay. Equivalent HeLa or Vero cell lysate protein and equivalent volumes of concentrated proteins from the medium were analyzed by immunoblotting.

[2] = system: RSV G protein cleavage in Vero cells; experiment: Cell-surface RSV G protein cleavage in rgRSV-infected cells treated with protease inhibitors (biotinylation, immunoblot with mAb L9); type: cell-based; conditions: 24 hpi
Method: To elucidate the class of protease responsible for G protein cleavage in Vero cells, cells were treated with increasing concentrations of protease inhibitors after inoculating with recombinant green fluorescent protein expressing RSV (rgRSV). Cells were incubated with rgRSV for 2 h with tipping at 37° C. before replacing inoculum with fresh cell culture medium. Drugs were added at different times post infection. In each case, uninfected, no drug, and vehicle (at the highest concentration used) were included in all experiments as controls. In all experiments at 24 hpi, cell surface proteins were biotinylated, cells lysed and equivalent amounts of protein from each sample were mixed with streptavidin beads.
Aprotinin, a serine protease inhibitor, leupeptin, a serine/cysteine protease inhibitor; or E-64, a cysteine protease inhibitor were added to the cell culture media (3.125 to 50 μg/ml) from 2-24 hpi. The most likely proteins to be incorporated into the virions are cell surface proteins, so the cell surfaced was biotinylated, proteins isolated from lysed cells with streptavidin beads, and immunobloted with L9, a mAb to the G protein, as a probe (FIG. 1A). In the untreated and vehicle treated samples most of the cell surface G protein was cleaved (˜55 kDa), leaving only a small portion of full length (˜90 kDa) G protein. […] Since both leupeptin and E64 block the activity of cysteine proteases, the protease responsible for cleavage of the G protein in Vero cells is a cysteine protease.
To narrow the field of cysteine proteases, cells were treated at 6 hpi with a more specific cysteine protease inhibitor, ALLM (0.1 to 100 μM).
RSV-infected HeLa and Vero cells were treated with a cathepsin B inhibitor, CA-074 (0.1 to 100 μM), or a cathepsin L inhibitor, cathepsin L inhibitor III (0.1 to 100 μM) 6 hpi.
Cathepsin L is a protease present primarily in the interior of the lysosome and is optimally active at acidic pH. Vero cells expressing the G protein were treated with chloroquine to raise the pH of the lysosome. […] To generate FIG. 4C, cells were inoculated with RSV or mock inoculated. 6 hpi the cells were treated with increasing concentrations of chloroquine. 24 hpi cells were biotinylated and G protein assayed
HeLa and Vero cells were rgRSV (MOI: 1) or mock inoculated. 2 hpi the inoculum was replaced with fresh complete medium, and 4 hpi cells the medium was changed again to complete medium with 2-fold dilutions of these protease inhibitors (Sigma-Aldrich, St. Louis, Mo.), dissolved in water: Aprotinin (3.125 to 50 μg/ml); Leupeptin (6.25 to 100 μg/ml); E-64 (6.25 to 100 μg/ml); or equal volumes of water in medium. In other experiments, cells were treated at 6 hpi with: 10-fold dilutions (0.1 to 100 μM) of: Cathepsin inhibitor I (Calbiochem); ALLM (Santa Cruz, Dallas, Tex.); Chloroquine diphosphate salt (Sigma Aldrich) or equivalent volumes of vehicle (water); CA-074 (Calbiochem); Cathepsin L inhibitor III (Calbiochem); or an equal volume of vehicle (DMSO) in medium.
At 24 hpi cells were biotinylated with Ez-link Sulfo-NHS-LC-Biotin (Thermo Fisher). Cells were lysed with lysis buffer containing 150 mM NaCl, 1% Triton X-100, 50 mM Tris, 0.1% SDS, and 1× Halt protease cocktail inhibitor (Thermo Fisher). Proteins were quantified using BCA protein assay kit (Pierce, Waltham, Mass.), and equal amounts of protein were added to high capacity streptavidin agarose beads (Thermo Fisher). The mixtures were rotated for 1 h at 4° C., the beads were pelleted and washed with lysis buffer (without protease cocktail inhibitor), NuPage LDS sample buffer was added, and boiled for 5 min, separated by NuPAGE Novex 4-12% bis-tris protein gels and transferred to nitrocellulose in an iBlot transfer stack, using the iBlot transferring system (Life Technologies) for immunoblot analysis. […]

[3] = rgRSV-infected Vero cells, 6.24 to 100 μg/ml

Compound: 206-215: RSV G protein with amino acids 206-215 deleted
- cleavage of G protein deletion mutants [1]: cleaved less efficiently than the wt G protein
- cleavage of G protein deletion mutants ([1]; listed as Δ206-215): inhibit but do not abolished protein cleavage

Compound: CSCC[C@@H](C=O)NC(=O)[C@H](CC(C)C)NC(=O)[C@H](CC(C)C)NC(C)=O [ALLM] (Ac-Leu-Leu-Met-aldehyde)
- G protein cleavage (cell surface G protein) ([2]; rgRSV-infected Vero cells, treated at 6 hpi, 0.1 to 100 μM): prevention of cleavage; also recorded: inhibited G protein cleavage

Compound: CCCNC(=O)[C@H]1O[C@@H]1C(=O)N[C@H](C(=O)N1CCC[C@H]1C(=O)O)[C@@H](C)CC [CA-074]
- G protein cleavage (cell surface G protein) ([2]; RSV-infected HeLa and Vero cells, 0.1 to 100 μM at 6 hpi): RSV G protein cleavage in the presence; also recorded: did not change this pattern

Compound: CC(C)C[C@H](NC(=O)[C@H]1O[C@@H]1C(=O)O)C(=O)NCCCCN=C(N)N [E64, E-64]
- G protein cleavage (cell surface G protein) [2, 3]: did, in a dose dependent manner
- G protein cleavage (cell surface G protein) ([2]; rgRSV-infected Vero cells, 6.24 to 100 μg/ml, listed as E-64): prevention of cleavage

Compound: CCN(CC)CCCC(C)Nc1ccnc2cc(Cl)ccc12 (stereo not drawn) [chloroquine]
- G protein on the cell surface (cleaved vs full length) ([2]; Vero cells, increasing concentrations of chloroquine from 6 hpi): primarily full length G protein; also recorded: decreased cleavage

Compound: CC(=O)N[C@@H](CC(C)C)C(=O)N[C@@H](CC(C)C)C(=O)N[C@H](C=O)CCCNC(=N)N [leupeptin]
- G protein cleavage (cell surface G protein) [2, 3]: did, in a dose dependent manner
- G protein cleavage (cell surface G protein) ([2]; rgRSV-infected Vero cells, 6.24 to 100 μg/ml, listed as Leupeptin): prevention of cleavage

Compound: Aprotinin
- G protein cleavage (cell surface G protein) ([2]; rgRSV-infected Vero cells, 3.125 to 50 μg/ml): did not prevent G protein cleavage

Compound: D214: RSV strain A2 G protein with alanine substitution at D214
- resistance to cleavage of alanine substitution G protein mutants [1]: partially to nearly completely resistant to cleavage

Compound: K209: RSV strain A2 G protein with alanine substitution at K209
- efficiency at inhibiting cleavage (rank among alanine substitutions) [1]: second most efficient
- resistance to cleavage of alanine substitution G protein mutants [1]: partially to nearly completely resistant to cleavage

Compound: K212: RSV strain A2 G protein with alanine substitution at K212
- resistance to cleavage of alanine substitution G protein mutants [1]: partially to nearly completely resistant to cleavage

Compound: Δ206-210
- cleavage of G protein deletion mutants [1]: inhibit but do not abolished protein cleavage
